This is an account of results in article PMC3309038 (Bioorganic & medicinal chemistry letters, 2012).

The nature of data set [1]: Microsomal stability assay, human liver microsomes. The data set is classed as in vitro ADME. The conditions noted are these: pH 7.4. (In general: Liver microsomes are a subcellular fraction often used to study metabolism.)
A short description of a further data set: in vitro. Format: in vitro ADME. The settings on record: rat, microsomes, pH 7.4.
The test system of another data set is TZM-bl cells. The conditions noted are these: read-out: CC50, cytotoxicity to 50% of cells, published previously; cited from earlier work.
Another data set deals with wild-type HIV-1 NL4-3. Description: Anti-HIV activity against wild-type HIV-1 NL4-3 infection of TZM-bl cells. The data set is classed as cell-based. The settings on record: HIV-1 NL4-3 wild-type.

Molecules are shown by their SMILES.

For `Cc1cc(/C=C/C#N)cc(C)c1Nc1ccnc(Nc2ccc(C#N)cc2)n1` [Compound 2, rilpivirine], the figures for the microsomal CLint at 1 μM (in data set [1]; in “in vitro”) were 200 µL/min/mg and 57 µL/min/mg, respectively.

`Cc1cc(/C=C/C#N)cc(C)c1Oc1cc(Nc2ccc(C#N)cc2)c(N)cc1[N+](=O)[O-]` [Compound 3]: the intrinsic clearance (microsomal CLint) at 1 μM in data set [1] turned out to be 150 µL/min/mg; in “in vitro” it was 50 µL/min/mg. Also, in the data set on TZM-bl cells, the CC50 is over 47.1 µM.

With `COC(=O)c1cc(N)c(Nc2ccc(C#N)cc2)cc1Oc1c(C)cc(/C=C/C#N)cc1C` [Compound 9a], the “Selectivity index (SI), ratio of CC50/EC50” value with wild-type HIV-1 NL4-3 is reported as over 8465.

With `Cc1cc(/C=C/C#N)cc(C)c1Oc1cc(Nc2ccc(C#N)cc2)c(N)cc1C(N)=O` [Compound 9c], the results for the intrinsic clearance (microsomal CLint) at 1 μM (in data set [1]; in the data set “in vitro”) were 200 µL/min/mg and 57 µL/min/mg, respectively.

With `Cc1cc(/C=C/C#N)cc(C)c1Oc1cc(Nc2ccc(C#N)cc2)c(N)cc1CO` [Compound 9e], the intrinsic metabolic clearance (microsomal CLint) at 1 μM in data set [1] amounted to 230 µL/min/mg.

One may read the microsomal CLint as a measure of how fast metabolising enzymes remove a compound, apart from limits set by blood flow. Read a high microsomal CLint as faster metabolism. What is called CC50 is the concentration at which the toxic effect on the cells reaches its halfway point.
